# Experimental data published in PubChem BioAssay (NCI).
#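 Dose response: 5 concentrations. Exposure: 48 h. Format: 96-well plates. Endpoint: linear interpolation; highest concentration if not reached. GI50 marks 50% less growth. At the TGI there is no net growth.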
# Key:
# Experiment in all cases: DTP human tumour cell line panel, 48 h
# 786-0 renal = tested on: 786-0 renal
# A498 renal = tested on: A498 renal
# A549 NSCLC = tested on: A549 NSCLC
# ACHN renal = tested on: ACHN renal
# BT-549 breast = tested on: BT-549 breast
# CAKI-1 renal = tested on: CAKI-1 renal
# CCRF-CEM leukemia = tested on: CCRF-CEM leukemia
# COLO 205 colon = tested on: COLO 205 colon
# DU-145 prostate = tested on: DU-145 prostate
# EKVX NSCLC = tested on: EKVX NSCLC
# HCC-2998 colon = tested on: HCC-2998 colon
# HCT-116 colon = tested on: HCT-116 colon
# HCT-15 colon = tested on: HCT-15 colon
# HL-60(TB) leukemia = tested on: HL-60(TB) leukemia
# HOP-62 NSCLC = tested on: HOP-62 NSCLC
# HOP-92 NSCLC = tested on: HOP-92 NSCLC
# HS 578T breast = tested on: HS 578T breast
# HT29 colon = tested on: HT29 colon
# IGROV1 ovarian = tested on: IGROV1 ovarian
# K-562 leukemia = tested on: K-562 leukemia
# KM12 colon = tested on: KM12 colon
# LOX IMVI melanoma = tested on: LOX IMVI melanoma
# MALME-3M melanoma = tested on: MALME-3M melanoma
# MCF7 breast = tested on: MCF7 breast
# MDA-MB-231 breast = tested on: MDA-MB-231 breast
# MDA-MB-435 = tested on: MDA-MB-435
# MOLT-4 leukemia = tested on: MOLT-4 leukemia
# NCI-H226 lung = tested on: NCI-H226 lung
# NCI-H23 lung = tested on: NCI-H23 lung
# NCI-H460 lung = tested on: NCI-H460 lung
# NCI-H522 lung = tested on: NCI-H522 lung
# NCI/ADR-RES ovarian = tested on: NCI/ADR-RES ovarian
# OVCAR-3 ovarian = tested on: OVCAR-3 ovarian
# OVCAR-4 ovarian = tested on: OVCAR-4 ovarian
# OVCAR-5 ovarian = tested on: OVCAR-5 ovarian
# OVCAR-8 ovarian = tested on: OVCAR-8 ovarian
# PC-3 prostate = tested on: PC-3 prostate
# RPMI-8226 leukemia = tested on: RPMI-8226 leukemia
# RXF 393 renal = tested on: RXF 393 renal
# SF-268 CNS = tested on: SF-268 CNS
# SF-295 CNS = tested on: SF-295 CNS
# SF-539 CNS = tested on: SF-539 CNS
# SK-MEL-2 melanoma = tested on: SK-MEL-2 melanoma
# SK-MEL-28 melanoma = tested on: SK-MEL-28 melanoma
# SK-MEL-5 melanoma = tested on: SK-MEL-5 melanoma
# SK-OV-3 ovarian = tested on: SK-OV-3 ovarian
# SN12C renal = tested on: SN12C renal
# SNB-19 CNS = tested on: SNB-19 CNS
# SNB-75 CNS = tested on: SNB-75 CNS
# SR leukemia = tested on: SR leukemia
# SW-620 colon = tested on: SW-620 colon
# T-47D breast = tested on: T-47D breast
# TK-10 renal = tested on: TK-10 renal
# U251 CNS = tested on: U251 CNS
# UACC-257 melanoma = tested on: UACC-257 melanoma
# UACC-62 melanoma = tested on: UACC-62 melanoma
# UO-31 renal = tested on: UO-31 renal
smiles,measurement,setting,value
CCCCc1cc(O)ccc1O,GI50,786-0 renal,12.2 µM
same,TGI,786-0 renal,> 100 µM
same,GI50,A498 renal,> 100 µM
same,TGI,A498 renal,> 100 µM
same,GI50,A549 NSCLC,89.2 µM
same,TGI,A549 NSCLC,> 100 µM
same,GI50,ACHN renal,15.6 µM
same,TGI,ACHN renal,28.9 µM
same,GI50,BT-549 breast,6.12 µM
same,TGI,BT-549 breast,> 100 µM
same,GI50,CAKI-1 renal,33 µM
same,TGI,CAKI-1 renal,> 100 µM
same,GI50,CCRF-CEM leukemia,2.79 µM
same,TGI,CCRF-CEM leukemia,60.6 µM
same,GI50,COLO 205 colon,74.6 µM
same,TGI,COLO 205 colon,> 100 µM
same,GI50,DU-145 prostate,80.7 µM
same,TGI,DU-145 prostate,> 100 µM
same,GI50,EKVX NSCLC,41.9 µM
same,TGI,EKVX NSCLC,> 100 µM
same,GI50,HCC-2998 colon,70.8 µM
same,TGI,HCC-2998 colon,> 100 µM
same,GI50,HCT-116 colon,15.5 µM
same,TGI,HCT-116 colon,28.9 µM
same,GI50,HCT-15 colon,28.2 µM
same,TGI,HCT-15 colon,> 100 µM
same,GI50,HL-60(TB) leukemia,2.56 µM
same,TGI,HL-60(TB) leukemia,6.77 µM
same,GI50,HOP-62 NSCLC,53.7 µM
same,TGI,HOP-62 NSCLC,> 100 µM
same,GI50,HOP-92 NSCLC,26.1 µM
same,TGI,HOP-92 NSCLC,> 100 µM
same,GI50,HS 578T breast,18.7 µM
same,TGI,HS 578T breast,> 100 µM
same,GI50,HT29 colon,43.1 µM
same,TGI,HT29 colon,> 100 µM
same,GI50,IGROV1 ovarian,32.3 µM
same,TGI,IGROV1 ovarian,> 100 µM
same,GI50,K-562 leukemia,10.3 µM
same,TGI,K-562 leukemia,> 100 µM
same,GI50,KM12 colon,16.4 µM
same,TGI,KM12 colon,> 100 µM
same,GI50,LOX IMVI melanoma,14.6 µM
same,TGI,LOX IMVI melanoma,63.6 µM
same,GI50,MALME-3M melanoma,21.6 µM
same,TGI,MALME-3M melanoma,65.4 µM
same,GI50,MCF7 breast,40.4 µM
same,TGI,MCF7 breast,> 100 µM
same,GI50,MDA-MB-231 breast,15.1 µM
same,TGI,MDA-MB-231 breast,> 100 µM
same,GI50,MDA-MB-435,22 µM
same,TGI,MDA-MB-435,62.1 µM
same,GI50,MOLT-4 leukemia,5.07 µM
same,TGI,MOLT-4 leukemia,> 100 µM
same,GI50,NCI-H226 lung,48.8 µM
same,TGI,NCI-H226 lung,> 100 µM
same,GI50,NCI-H23 lung,67.1 µM
same,TGI,NCI-H23 lung,> 100 µM
same,GI50,NCI-H460 lung,39 µM
same,TGI,NCI-H460 lung,> 100 µM
same,GI50,NCI-H522 lung,2.28 µM
same,TGI,NCI-H522 lung,6.97 µM
same,GI50,NCI/ADR-RES ovarian,23.2 µM
same,TGI,NCI/ADR-RES ovarian,> 100 µM
same,GI50,OVCAR-3 ovarian,7.84 µM
same,TGI,OVCAR-3 ovarian,21.8 µM
same,GI50,OVCAR-4 ovarian,13.1 µM
same,TGI,OVCAR-4 ovarian,26.3 µM
same,GI50,OVCAR-5 ovarian,30 µM
same,TGI,OVCAR-5 ovarian,> 100 µM
same,GI50,OVCAR-8 ovarian,28.2 µM
same,TGI,OVCAR-8 ovarian,> 100 µM
same,GI50,PC-3 prostate,10.5 µM
same,TGI,PC-3 prostate,> 100 µM
same,GI50,RPMI-8226 leukemia,3.13 µM
same,TGI,RPMI-8226 leukemia,26.6 µM
same,GI50,RXF 393 renal,16.7 µM
same,TGI,RXF 393 renal,> 100 µM
same,GI50,SF-268 CNS,15.5 µM
same,TGI,SF-268 CNS,> 100 µM
same,GI50,SF-295 CNS,42.7 µM
same,TGI,SF-295 CNS,> 100 µM
same,GI50,SF-539 CNS,11.5 µM
same,TGI,SF-539 CNS,45.4 µM
same,GI50,SK-MEL-2 melanoma,35.8 µM
same,TGI,SK-MEL-2 melanoma,> 100 µM
same,GI50,SK-MEL-28 melanoma,78.7 µM
same,TGI,SK-MEL-28 melanoma,> 100 µM
same,GI50,SK-MEL-5 melanoma,58.3 µM
same,TGI,SK-MEL-5 melanoma,> 100 µM
same,GI50,SK-OV-3 ovarian,64.5 µM
same,TGI,SK-OV-3 ovarian,> 100 µM
same,GI50,SN12C renal,18.7 µM
same,TGI,SN12C renal,> 100 µM
same,GI50,SNB-19 CNS,78.5 µM
same,TGI,SNB-19 CNS,> 100 µM
same,GI50,SNB-75 CNS,14.1 µM
same,TGI,SNB-75 CNS,> 100 µM
same,GI50,SR leukemia,8.26 µM
same,TGI,SR leukemia,> 100 µM
same,GI50,SW-620 colon,33.8 µM
same,TGI,SW-620 colon,> 100 µM
same,GI50,T-47D breast,15.9 µM
same,TGI,T-47D breast,67.5 µM
same,GI50,TK-10 renal,17.9 µM
same,TGI,TK-10 renal,42.8 µM
same,GI50,U251 CNS,37.4 µM
same,TGI,U251 CNS,> 100 µM
same,GI50,UACC-257 melanoma,78.2 µM
same,TGI,UACC-257 melanoma,> 100 µM
same,GI50,UACC-62 melanoma,27.7 µM
same,TGI,UACC-62 melanoma,> 100 µM
same,GI50,UO-31 renal,10.8 µM
same,TGI,UO-31 renal,28.1 µM
